The text below walks through data of patent publication US9265754B2, “Use of 1-{4-[1-(4-cyclohexyl-3-trifluoromethyl-benzyloxyimino)-ethyl]-2-ethyl-benzyl}-azetidine-3-carboxylic acid in treating symptoms associated with rett syndrome” (Novartis AG, priority 2007, dated 2016).

Assay [1] relates to patients with relapsing MS. As to the kind of experiment: Phase II trial in relapsing MS: depressive symptoms by Beck Depression Inventory second edition (BDI-II). It counts as in vivo, human. To be noted: for BDI-II score, change from baseline during core study: 6 months core study. The procedure:
In this study, depressive symptoms were assessed by means of the Beck Depression Inventory second edition (BDI-II).
Patients with relapsing MS (relapsing-remitting or secondary progressive) were randomized to receive placebo or FTY720 1.25 or 5 mg/day, for 6 months (the core study). At the end of this period, placebo-treated patients were re-randomized to one of the two FTY720 doses, while those originally randomized to FTY720 continued treatment at the same doses. After approximately 18-24 months, patients receiving FTY720 5 mg, were switched to 1.25 mg in view of evidence that the higher dose conferred no efficacy benefit over the lower dose.
The BDI-II was administered at baseline, and at 3 and 6 months during the core study and at 12 and 24 months during the extension phase (i.e. 6 and 18 months after the start of the extension phase). This is a 21-item self-report scale measuring various symptoms and attitudes associated with depression. Respondents rate depressive symptoms experienced during the past two weeks on a 4-point scale, coded 0 to 3 by increasing order of severity. A total score across all 21 items can be generated, with lower total scores indicating lower overall severity of depressive symptoms. BDI-II total scores of 14 or above are indicative of clinical depression. Ny reduction in the BDI-II score indicated an improvement in depression.
Of the 281 patients originally randomized to treatment, 255 completed the core study. BDI-II scores at baseline and 6 months were available in 239 patients.

Assay [2] relates to BDNF. As to the kind of experiment: In vivo S1P receptor modulator induced BDNF production (Western blot of cortex). The conditions noted are these: female DA rats. More on the design: species or system rat. The source says: Shown on the y-axis is the relative intensity of BDNF signal of animals treated with FTY720 vs control animals that had received vehicle (i.e., ratio of signal from FTY720-treated rats divided by signal from vehicle-treated rats, n=3 rats/group). On the x axis, the first two bars come from the frontal cortex, the second two from the parietal cortex and in each case the white bar represents the vehicle treated animals and the black bar represents the FTY720 treated animals.
N=3 animals each were treated with either vehicle, 0.1 mg/kg/d FTY720, 0.3 mg/kg/d FTY720 or 1 mg/kg/d FTY720.
Female DA rats were treated for 9 days (5 days, 2 day pause, 4 days) with FTY720 p.o.
Expt 1: 0.3 mg/kg/d vs. vehicle.
One day after the last treatment, the rats were perfused with ice-cold PBS and different CNS regions were isolated.
Female DA rats were treated for 9 days (5 days, 2 day pause, 4 days) with FTY720 p.o. 0.1; 0.3 or 1 mg/kg/d vs vehicle

The test system of assay [3] is patients with relapsing MS. To be noted: cited from earlier work.
Where [4] appears, read: 281 patients with relapsing MS, 6 months, 1.25 and 5 mg once daily.

As for `CCCCCCCCc1ccc(CCC(N)(CO)CO)cc1` [FTY720, 2-amino-2-[2-(4-octylphenyl)ethyl]propane-1,3-diol], the “BDI-II score, change from baseline during core study” value in assay [1] (1.25 mg/day) was “decreased from baseline”. Moreover, in assay [1] (1.25 mg/day, at 6 months), the “change in BDI-II scores from baseline vs placebo-treated patients” value is “significantly greater”. Besides, in assay [1] (5.0 mg/day), the “BDI-II score, change from baseline during core study” value is recorded as “remained consistent”. In assay [1] (1.25 vs 5.0 mg/day, 5% level), the “difference in changes in BDI-II scores between the two doses” value is on record as “not significant”. For the same molecule, in assay [2] (9-day treatment, 0.3 mg/kg/d p.o., frontal and parietal cortex, FIG. 1), the “BDNF in the cortex (relative intensity of BDNF signal vs vehicle)” value is given as “induction of BDNF”. Besides, in assay [2] (9-day treatment, 0.1, 0.3 or 1 mg/kg/d p.o., FIGS. 2A-2B), the “BDNF in the cortex, multiple doses” value is recorded as “induction of BDNF”. For the same molecule, in assay [3] (setting [4]), the “reduction of annualized relapse rate compared with placebo” value is “more than 50%” and the “reduction of gadolinium-enhanced MRI lesions compared with placebo” value is on record as “up to 80%”. Moreover, in assay [3] (patients treated for up to 24 months), the “low disease activity on MRI and relapses during dose-blinded extension phase” value is “sustained”.
